Measured values taken from US20230158005A1 (priority 2020, published 2023).
Where “and” joins values, the source holds several entries; their conditions need not be identical. Equal entries are not always repeated.

Experiments:
[1] = system: A/Minnesota/19/2011 (H1N1); assay type: cell-based, influenza A virus
A/Fujian/413/2002 (H3N2) = assay type: cell-based, influenza A virus
A/Perth/16/2009 (H3N2) = assay type: cell-based, influenza A virus
[2] = system: A/Hong Kong/156/1997 (H5N1); assay type: cell-based, influenza A virus
A/Alaska/140/2015 (H3N2) = assay type: cell-based, influenza A virus; on Virus titer, replicates 1-3: test concentration or dose not given here
[3] = system: A/Vietnam/1203/2004 (H5N1); assay type: cell-based, influenza A virus
A/Anhui/1/2013 (H7N9) = assay type: cell-based, influenza A virus
[4] = system: A/Indonesia/05/2005 (H5N1); assay type: cell-based, influenza A virus; on Virus titer, replicates 1-3: test concentration or dose not given here
[5] = system: A/Puerto Rico/8/1934 (H1N1); assay type: cell-based, influenza A virus
[6] = system: A/California/07/2009 (H1N1); assay type: cell-based, influenza A virus
A/USSR/90/1977 (H1N1) = assay type: cell-based, influenza A virus
[7] = system: A/Solomon Islands/03/2006 (H1N1); assay type: cell-based, influenza A virus
[8] = system: A/California/02/2014 (H3N2); assay type: cell-based, influenza A virus; on Virus titer, replicates 1-3: test concentration or dose not given here
A/Texas/71/2007 (H3N2) = assay type: cell-based, influenza A virus
[9] = system: A/New Jersey/8/1976 (H1N1); assay type: cell-based, influenza A virus
[10] = system: A/New Caledonia/20/1999 (H1N1); assay type: cell-based, influenza A virus
[11] = system: A549 human lung carcinoma cells
[12] = system: A/Egypt/N6658/2011 (H5N1); assay type: cell-based, influenza A virus
A/Indiana/08/2011 (H3N2) = assay type: cell-based, influenza A virus
A/Hawaii/15/2001 (H1N1) = assay type: cell-based, influenza A virus; on Virus titer, replicates 1-3: test concentration or dose not given here

CCOC(=O)C1=C[C@@H](OC(CC)CC)[C@H](NC(C)=O)[C@@H](N)C1 [Oseltamivir, oseltamivir, reference compound]
DIF (Difference from Control) [1]: -7.33 log10TCID50/mL | Virus titer AVG [1]: 1.50 log10TCID50/mL | Virus titer, replicates 1-3 [1]: 1.50 log10TCID50/mL | DIF (Difference from Control) (A/Fujian/413/2002 (H3N2)): -0.58 log10TCID50/mL | Virus titer AVG (A/Fujian/413/2002 (H3N2)): 2.75 log10TCID50/mL | Virus titer, replicates 1-3 (A/Fujian/413/2002 (H3N2)): 3.25 log10TCID50/mL and 2.50 log10TCID50/mL (2×) | DIF (Difference from Control) (A/Perth/16/2009 (H3N2)): 0.00 log10TCID50/mL | Virus titer AVG (A/Perth/16/2009 (H3N2)): 4.25 log10TCID50/mL | Virus titer, replicates 1-3 (A/Perth/16/2009 (H3N2)): 4.25 log10TCID50/mL | DIF (Difference from Control) [2]: -3.08 log10TCID50/mL | Virus titer AVG [2]: 1.50 log10TCID50/mL | Virus titer, replicates 1-3 [2]: 1.50 log10TCID50/mL | DIF (Difference from Control) (A/Alaska/140/2015 (H3N2)): -3.83 log10TCID50/mL | Virus titer AVG (A/Alaska/140/2015 (H3N2)): 2.92 log10TCID50/mL | Virus titer, replicates 1-3 (A/Alaska/140/2015 (H3N2)): 2.50 log10TCID50/mL (2×) and 3.75 log10TCID50/mL | DIF (Difference from Control) [3]: -2.75 log10TCID50/mL | Virus titer AVG [3]: 5.17 log10TCID50/mL | Virus titer, replicates 1-3 [3]: 5.25 log10TCID50/mL and 5.50 log10TCID50/mL and 4.75 log10TCID50/mL | DIF (Difference from Control) (A/Anhui/1/2013 (H7N9)): -2.25 log10TCID50/mL | Virus titer AVG (A/Anhui/1/2013 (H7N9)): 1.50 log10TCID50/mL | Virus titer, replicates 1-3 (A/Anhui/1/2013 (H7N9)): 1.50 log10TCID50/mL | DIF (Difference from Control) [4]: -3.50 log10TCID50/mL | Virus titer AVG [4]: 4.58 log10TCID50/mL | Virus titer, replicates 1-3 [4]: 4.75 log10TCID50/mL and 4.50 log10TCID50/mL (2×) | DIF (Difference from Control) [5]: -2.25 log10TCID50/mL | Virus titer AVG [5]: 3.25 log10TCID50/mL | Virus titer, replicates 1-3 [5]: 3.75 log10TCID50/mL and 3.25 log10TCID50/mL and 2.75 log10TCID50/mL | DIF (Difference from Control) [6]: -3.00 log10TCID50/mL | Virus titer AVG [6]: 2.58 log10TCID50/mL | Virus titer, replicates 1-3 [6]: 2.75 log10TCID50/mL and 2.50 log10TCID50/mL (2×) | DIF (Difference from Control) (A/USSR/90/1977 (H1N1)): -4.33 log10TCID50/mL | Virus titer AVG (A/USSR/90/1977 (H1N1)): 2.42 log10TCID50/mL | Virus titer, replicates 1-3 (A/USSR/90/1977 (H1N1)): 2.50 log10TCID50/mL (2×) and 2.25 log10TCID50/mL | DIF (Difference from Control) [7]: -4.25 log10TCID50/mL | Virus titer AVG [7]: 3.25 log10TCID50/mL | Virus titer, replicates 1-3 [7]: 3.75 log10TCID50/mL and 3.25 log10TCID50/mL and 2.75 log10TCID50/mL | DIF (Difference from Control) [8]: -1.58 log10TCID50/mL | Virus titer AVG [8]: 4.92 log10TCID50/mL | Virus titer, replicates 1-3 [8]: 5.25 log10TCID50/mL and 4.75 log10TCID50/mL (2×) | DIF (Difference from Control) (A/Texas/71/2007 (H3N2)): -0.83 log10TCID50/mL | Virus titer AVG (A/Texas/71/2007 (H3N2)): 4.00 log10TCID50/mL | Virus titer, replicates 1-3 (A/Texas/71/2007 (H3N2)): 3.50 log10TCID50/mL and 4.75 log10TCID50/mL and 3.75 log10TCID50/mL | DIF (Difference from Control) [9]: -3.58 log10TCID50/mL | Virus titer AVG [9]: 1.50 log10TCID50/mL | Virus titer, replicates 1-3 [9]: 1.50 log10TCID50/mL | DIF (Difference from Control) [10]: -5.67 log10TCID50/mL | Virus titer AVG [10]: 1.50 log10TCID50/mL | Virus titer, replicates 1-3 [10]: 1.50 log10TCID50/mL | % Dif (absorbance as percent relative to the vehicle control, relative viability) [11]: 83.88% | DIF (Difference from Control) [12]: -3.25 log10TCID50/mL | Virus titer AVG [12]: 2.08 log10TCID50/mL | Virus titer, replicates 1-3 [12]: 2.25 log10TCID50/mL and 1.50 log10TCID50/mL and 2.50 log10TCID50/mL | DIF (Difference from Control) (A/Indiana/08/2011 (H3N2)): -5.08 log10TCID50/mL | Virus titer AVG (A/Indiana/08/2011 (H3N2)): 3.25 log10TCID50/mL | Virus titer, replicates 1-3 (A/Indiana/08/2011 (H3N2)): 2.75 log10TCID50/mL and 3.75 log10TCID50/mL and 3.25 log10TCID50/mL | DIF (Difference from Control) (A/Hawaii/15/2001 (H1N1)): -1.92 log10TCID50/mL | Virus titer AVG (A/Hawaii/15/2001 (H1N1)): 2.67 log10TCID50/mL | Virus titer, replicates 1-3 (A/Hawaii/15/2001 (H1N1)): 2.75 log10TCID50/mL (2×) and 2.50 log10TCID50/mL
